Experimental findings from patent publication US7407934B2, “Methods for regulating postprandial blood glucose” (Amylin Pharmaceuticals, Inc., priority 1993, dated 2008) are described below.

On the set-up of data set [1]: species or system human. The settings on record: in vivo, iv. The source says: (§1) Subjects in each dose group underwent a two period crossover to examine intravenous (IV) bolus versus IV infusion of drug. Each period consisted of a three-day confinement to the study unit. On each occasion, the initial day of confinement was allowed for acclimatization to the study unit. The second and third days constituted an imbedded crossover of placebo versus active medication. […] An imbedded cross-over design for the administration of drug and placebo on Days 2 and 3 of this admission was employed in a manner similar to that used during the first admission. The six subjects assigned to the placebo group received placebo on each of the study days. On study days, intravenous catheters were inserted at least 30 minutes prior to the start of the study. 15 minutes before dosing, the subjects took their usual insulin dose via subcutaneous injection. […] The infusion rate was designed to administer the assigned amount of drug over the two hour period. Thirty minutes later, the subjects ingested their normal breakfasts. Blood samples were taken between −30 and 300 minutes for the measurement of plasma.

The nature of data set [2]: 14-day study, Sustacal meal tolerance test glucose (Example 4). To be noted: 14 days. The data set is classed as in vivo, human. The method, then:
72 subjects with insulin-dependent diabetes mellitus participated in a 14-day clinical trial. Each subject was randomly assigned to one of four treatment groups, receiving placebo, 30, 100 or 300 μg tripro-amylin by subcutaneous injection three times a day for 14 days. The subjects also remained on their usual insulin regimen throughout the study. On days 1 (baseline), 7 and 14, standardized meal tolerance tests were performed.
For the standardized meal tolerance tests, subjects were given a Sustacal® liquid meal (360 ml containing 360 calories) at 0800 h. Subjects abstained from food or drink (except for water) from 2200 h the night before. […] For a baseline test, on day 1, tripro-amylin (or placebo) was not administered until after completion of the test. On day 7 and 14, tripro-amylin (or placebo) was administered in a separate injection at the same time as the usual morning insulin dose. Samples for determination of serum glucose levels were drawn at −30, 0, 30, 60, 120 and 180 minutes relative to the start of the challenge. Time zero was considered to be the time when the subject began to drink the Sustacal® meal.

A short description of data set [3]: Plasma glucose after Sustacal meal or IV glucose load during AC-0137 infusion (Example 3). It counts as in vivo, human. The source says:
Twenty-seven subjects with insulin-dependent diabetes mellitus were allocated into a combination of two dose level groups and two types of tolerance tests.
Subjects remained in the clinic for three days. On the first day of confinement, the subjects were acclimatized to the clinic. […] In addition, subjects received either a Sustacal® meal or iv glucose tolerance test, as determined by the group assignment.
During the first day, the subject's usual insulin and caloric intake was stabilized and each subject then followed this insulin and dietary regimen throughout confinement in the clinic.
at approximately, 0700 h (T=0), the continuous infusion of study medication was initiated. At T=30 minutes, the subjects administered their usual AM dose of insulin. […] The type of tolerance test was determined according to the randomization schedule. […] Study drug administration was discontinued at t=300 minutes.
On the morning of the third day, iv lines were again placed in a similar manner as on Day 2. Subjects administered their usual pre-breakfast dose of insulin as on Day 2. […] An identical standardized Sustacal® meal tolerance or iv glucose load as they received on Day 2 was again administered. At the end of the sampling period the iv lines were withdrawn.

Data set [4] in a line: Post-prandial plasma glucose after IV bolus or IV infusion in insulin-dependent diabetic subjects (Example 2). The data set is classed as in vivo, human.
From the text: as §1

Data set [5] in a line: Uptake of labelled oral glucose load in corpulent LA/N rats (Example 6). The data set is classed as in vivo, rat. The method, then:
Uptake of an ingested glucose load was measured in 11 conscious 24-hr fasted corpulent (500-600 g) LA/N rats on 2 occasions, 14 days apart.

Data set [6] is described as follows: Oral glucose tolerance test in dogs during amylin infusion (Example 1). It counts as in vivo, dog. The procedure: Mongrel dogs (9 males, 12-17 kg wt. range) were used for this study. All animals were fasted overnight prior to each study. Each animal served as its own control for all protocols. Animals were equilibrated for 30-60 minutes prior to the start of each protocol.
25% glucose (1 gm/kg) was administered by mouth at t=0 minutes. […] Samples for insulin, glucose and lactate were obtained at 15 minutes intervals from t=−45 to t=180 minutes.

Take `CC[C@H](C)[C@H](NC(=O)[C@@H]1CCCN1C(=O)CNC(=O)[C@H](Cc1ccccc1)NC(=O)[C@H](CC(N)=O)NC(=O)[C@H](CC(N)=O)NC(=O)[C@H](CO)NC(=O)[C@H](CO)NC(=O)[C@H](Cc1c[nH]cn1)NC(=O)[C@@H](NC(=O)[C@H](CC(C)C)NC(=O)[C@H](Cc1ccccc1)NC(=O)[C@H](CC(N)=O)NC(=O)[C@H](C)NC(=O)[C@H](CC(C)C)NC(=O)[C@H](CCCNC(=N)N)NC(=O)[C@H](CCC(N)=O)NC(=O)[C@@H](NC(=O)[C@H](C)NC(=O)[C@@H]1CSSC[C@H](NC(=O)[C@@H](N)CCCCN)C(=O)N[C@@H](CC(N)=O)C(=O)N[C@@H]([C@@H](C)O)C(=O)N[C@@H](C)C(=O)N[C@@H]([C@@H](C)O)C(=O)N1)[C@@H](C)O)C(C)C)C(=O)N[C@@H](CC(C)C)C(=O)N1CCC[C@H]1C(=O)N1CCC[C@H]1C(=O)N[C@H](C(=O)N[C@@H](CC(N)=O)C(=O)N[C@H](C(=O)NCC(=O)N[C@@H](CO)C(=O)N[C@@H](CC(N)=O)C(=O)N[C@H](C(=O)N[C@@H](Cc1ccc(O)cc1)C(N)=O)[C@@H](C)O)C(C)C)[C@@H](C)O` [^25,28,29Pro-h-Amylin]: the “Disappearance of drug from plasma compartment” value in data set [1] was “apparent first-order kinetics”. The figures for the “Post-meal glucose: Mean of changes in AUC” value in data set [2] (30 micrograms s.c. 3 times daily), in data set [2] (100 micrograms s.c. 3 times daily) and in data set [2] (300 micrograms s.c. 3 times daily) were −6,645 mb/dl * min, −6,412 mb/dl * min and −7,316 mb/dl * min, respectively. The “Plasma glucose levels vs placebo” value in data set [3] (IV glucose load 300 mg/kg, 50 μg/hr IV infusion) is given as “not significantly different from placebo-treated subjects”; in data set [3] (Sustacal meal, 25 μg/hr or 50 μg/hr IV infusion) it was “reduced”. Moreover, the Post-prandial glucose levels result in data set [4] (IV bolus 30 μg) is listed as “no apparent change in glucose levels”. Further, the “Post-prandial rise in glucose” value in data set [4] (IV bolus 100 μg) is “clearly delayed and less pronounced”; in data set [4] (IV bolus 300 μg), “essentially eliminated”; in data set [4] (IV infusion 15 μg/hr) it was “highly suggestive of an effect”; in data set [4] (IV infusion 50 and 150 μg/hr), “striking”. Moreover, the Post-prandial hyperglycemia entry in data set [4] (continuous 2-hour IV infusion, 15-150 μg/hr) is reported as “dose-dependent reduction in post-prandial hyperglycemia”.

As to “ac-^10N^32Y8-32-salmon calcitonin [AC-0187]”, the “Acceleration of appearance of glucose-derived tritium in plasma” value is given as 48% in data set [5] (3 μg s.c. 3 min before gavage, 15 minutes post-gavage (P<0.02)) and 45% in data set [5] (3 μg s.c., 30 minutes post-gavage (P<0.001)). Further, the Plasma glucose in data set [5] (15 minutes after gavage with 0.5 g glucose, rise from 5.89±0.17) stood at 8.33 ± 0.28 mM; in data set [5] (60 minutes after glucose gavage) it was 6.89 ± 0.28 mM.

On to “acetyl-^11,18Arg, ^30Arg, ^32Tyr-^9-32calcitonin (salmon) [AC-0253]”, for which the “Changes in plasma glucose, antagonist alone” value in data set [6] (AC-0253 alone) was “no effect”. In data set [6] (AC-0253 up to 1500 pmol/kg/min with amylin 50 pmol/kg/min), the “Reversal of amylin-induced changes in plasma glucose” value is “does not completely reverse the effects of amylin”. Moreover, the “Effects on plasma lactate” value in data set [6] (oral glucose load) was “unremarkable”.
